Test results reported in PubChem BioAssay (NCI).
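Method: 48-hour compound exposure of cells in 96-well plates, five concentrations, linear interpolation of endpoints. At the GI50, growth is halved. TGI denotes the concentration required for complete inhibition of growth.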

Assays:
Experiment in all cases: NCI-60 cell line screen, 48 h
[1] = test system: A549 NSCLC
[2] = test system: HS 578T breast
[3] = test system: MALME-3M melanoma
[4] = test system: SF-268 CNS
[5] = test system: SK-MEL-5 melanoma
[6] = test system: OVCAR-5 ovarian
[7] = test system: OVCAR-8 ovarian
[8] = test system: SK-OV-3 ovarian
[9] = test system: A498 renal
[10] = test system: DU-145 prostate
[11] = test system: 786-0 renal
[12] = test system: CAKI-1 renal
[13] = test system: NCI-H23 lung
[14] = test system: PC-3 prostate
[15] = test system: HOP-92 NSCLC
[16] = test system: RXF 393 renal
[17] = test system: M14 melanoma
[18] = test system: MDA-MB-231 breast
[19] = test system: SNB-75 CNS
[20] = test system: EKVX NSCLC
[21] = test system: SK-MEL-2 melanoma
[22] = test system: HCC-2998 colon
[23] = test system: ACHN renal
[24] = test system: HCT-116 colon
[25] = test system: LOX IMVI melanoma
[26] = test system: HCT-15 colon
[27] = test system: MOLT-4 leukemia
[28] = test system: SF-295 CNS
[29] = test system: SK-MEL-28 melanoma
[30] = test system: SNB-19 CNS
[31] = test system: IGROV1 ovarian
[32] = test system: HT29 colon
[33] = test system: KM12 colon
[34] = test system: MCF7 breast
[35] = test system: NCI-H522 lung
[36] = test system: NCI/ADR-RES ovarian
[37] = test system: U251 CNS
[38] = test system: HOP-62 NSCLC
[39] = test system: NCI-H460 lung
[40] = test system: K-562 leukemia
[41] = test system: SN12C renal
[42] = test system: MDA-MB-435
[43] = test system: SF-539 CNS
[44] = test system: UACC-62 melanoma
[45] = test system: UACC-257 melanoma
[46] = test system: CCRF-CEM leukemia
[47] = test system: UO-31 renal
[48] = test system: BT-549 breast
[49] = test system: OVCAR-4 ovarian
[50] = test system: HL-60(TB) leukemia
[51] = test system: TK-10 renal
[52] = test system: SR leukemia
[53] = test system: RPMI-8226 leukemia
[54] = test system: SW-620 colon
[55] = test system: T-47D breast
[56] = test system: OVCAR-3 ovarian
[57] = test system: NCI-H226 lung
[58] = test system: COLO 205 colon

`Cc1cc(C)c(S(=O)(=O)Oc2ccccc2[N+](=O)[O-])c(C)c1` showed a GI50 [1] of 4.19 µM, a TGI [1] greater than 100 µM and a GI50 [2] of 1.42 µM. For the same compound, the TGI [2] was 5.24 µM, the GI50 [3] was 1.26 µM and the TGI [3] was greater than 100 µM. The GI50 [4] was 4.57 µM, the TGI [4] was greater than 100 µM and the GI50 [5] was 2 µM. It also gave a TGI [5] of 7.8 µM, a GI50 [6] of 5.67 µM and a TGI [6] greater than 100 µM. The GI50 [7] was 4.28 µM, the TGI [7] was greater than 100 µM and the GI50 [8] was 2.81 µM. The TGI [8] was greater than 29.2 µM, the GI50 [9] was 1.21 µM and the TGI [9] was 12.5 µM. It also gave a GI50 [10] of 2.38 µM, a TGI [10] greater than 31.5 µM and a GI50 [11] of 5.58 µM. The TGI [11] was greater than 100 µM, the GI50 [12] was 0.956 µM and the TGI [12] was greater than 19.9 µM. For the same compound, the GI50 [13] was 4.69 µM, the TGI [13] was greater than 100 µM and the GI50 [14] was 3.31 µM. For the same compound, the TGI [14] was greater than 100 µM, the GI50 [15] was 1.98 µM and the TGI [15] was 25.4 µM. It also gave a GI50 [16] of 2.48 µM, a TGI [16] of 7.83 µM and a GI50 [17] of 0.976 µM. It also gave a TGI [17] greater than 26.6 µM, a GI50 [18] of 3.7 µM and a TGI [18] greater than 100 µM. The GI50 [19] was 1.82 µM, the TGI [19] was 7.04 µM and the GI50 [20] was 3.26 µM. The TGI [20] was greater than 100 µM, the GI50 [21] was 3.41 µM and the TGI [21] was greater than 100 µM. For the same compound, the GI50 [22] was 2.95 µM, the TGI [22] was greater than 100 µM and the GI50 [23] was 5.56 µM. For the same compound, the TGI [23] was greater than 100 µM, the GI50 [24] was 1.44 µM and the TGI [24] was greater than 100 µM. It also gave a GI50 [25] of 3.33 µM, a TGI [25] greater than 100 µM and a GI50 [26] of 1.37 µM. It also gave a TGI [26] greater than 100 µM, a GI50 [27] of 1.39 µM and a TGI [27] greater than 100 µM. For the same compound, the GI50 [28] was 1.67 µM, the TGI [28] was greater than 24.3 µM and the GI50 [29] was 5.46 µM. The TGI [29] was greater than 100 µM, the GI50 [30] was 4 µM and the TGI [30] was greater than 100 µM. It also gave a GI50 [31] of 2.68 µM, a TGI [31] greater than 100 µM and a GI50 [32] of 0.921 µM. For the same compound, the TGI [32] was greater than 100 µM, the GI50 [33] was 0.803 µM and the TGI [33] was greater than 100 µM. For the same compound, the GI50 [34] was 2.81 µM, the TGI [34] was greater than 100 µM and the GI50 [35] was 1.26 µM. For the same compound, the TGI [35] was 6.56 µM, the GI50 [36] was 1.01 µM and the TGI [36] was greater than 27.4 µM. It also gave a GI50 [37] of 2.36 µM, a TGI [37] greater than 100 µM and a GI50 [38] of 3.33 µM. For the same compound, the TGI [38] was greater than 100 µM, the GI50 [39] was 2.4 µM and the TGI [39] was greater than 100 µM. For the same compound, the GI50 [40] was 0.398 µM, the TGI [40] was greater than 100 µM and the GI50 [41] was 14.7 µM. The TGI [41] was greater than 100 µM, the GI50 [42] was 0.239 µM and the TGI [42] was 0.879 µM. For the same compound, the GI50 [43] was 2.16 µM, the TGI [43] was greater than 23.1 µM and the GI50 [44] was 2.46 µM. It also gave a TGI [44] greater than 100 µM, a GI50 [45] of 4.22 µM and a TGI [45] greater than 100 µM. It also gave a GI50 [46] of 2.15 µM, a TGI [46] greater than 100 µM and a GI50 [47] of 3.27 µM. It also gave a TGI [47] greater than 100 µM, a GI50 [48] of 3.19 µM and a TGI [48] greater than 100 µM. For the same compound, the GI50 [49] was greater than 25.1 µM, the TGI [49] was greater than 100 µM and the GI50 [50] was 0.367 µM. It also gave a TGI [50] of 2.5 µM, a GI50 [51] of 4.86 µM and a TGI [51] greater than 100 µM. It also gave a GI50 [52] of 0.443 µM, a TGI [52] greater than 100 µM and a GI50 [53] of 2.54 µM. It also gave a TGI [53] greater than 100 µM, a GI50 [54] of 0.583 µM and a TGI [54] greater than 100 µM. For the same compound, the GI50 [55] was 4.79 µM, the TGI [55] was greater than 100 µM and the GI50 [56] was 1 µM. The TGI [56] was 3.63 µM, the GI50 [57] was 10.6 µM and the TGI [57] was greater than 100 µM. For the same compound, the GI50 [58] was 2.9 µM and the TGI [58] was 12.9 µM.
